Experimental data as given in PubChem BioAssay (NCI).
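These data come from cells grown in 96-well plates and exposed to compound for 48 hours at five concentrations. GI50 marks 50% less growth. Definition used: TGI = concentration required for complete inhibition of growth.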

What was measured:
Experiment in all cases: DTP human tumour cell line panel, 48 h
SK-MEL-28 melanoma = system: SK-MEL-28 melanoma
HCT-116 colon = system: HCT-116 colon
SW-620 colon = system: SW-620 colon
SN12C renal = system: SN12C renal
CCRF-CEM leukemia = system: CCRF-CEM leukemia
RXF 393 renal = system: RXF 393 renal
MOLT-4 leukemia = system: MOLT-4 leukemia
RPMI-8226 leukemia = system: RPMI-8226 leukemia
PC-3 prostate = system: PC-3 prostate
NCI/ADR-RES ovarian = system: NCI/ADR-RES ovarian
UACC-62 melanoma = system: UACC-62 melanoma
NCI-H460 lung = system: NCI-H460 lung
SK-MEL-5 melanoma = system: SK-MEL-5 melanoma
MDA-MB-231 breast = system: MDA-MB-231 breast
HOP-92 NSCLC = system: HOP-92 NSCLC
U251 CNS = system: U251 CNS
UACC-257 melanoma = system: UACC-257 melanoma
SR leukemia = system: SR leukemia
SK-OV-3 ovarian = system: SK-OV-3 ovarian
IGROV1 ovarian = system: IGROV1 ovarian
MDA-MB-435 = system: MDA-MB-435
SK-MEL-2 melanoma = system: SK-MEL-2 melanoma
MCF7 breast = system: MCF7 breast
LOX IMVI melanoma = system: LOX IMVI melanoma
SF-268 CNS = system: SF-268 CNS
OVCAR-5 ovarian = system: OVCAR-5 ovarian
T-47D breast = system: T-47D breast
TK-10 renal = system: TK-10 renal
A498 renal = system: A498 renal
NCI-H522 lung = system: NCI-H522 lung
K-562 leukemia = system: K-562 leukemia
HL-60(TB) leukemia = system: HL-60(TB) leukemia
OVCAR-3 ovarian = system: OVCAR-3 ovarian
ACHN renal = system: ACHN renal
HCC-2998 colon = system: HCC-2998 colon
NCI-H23 lung = system: NCI-H23 lung
OVCAR-4 ovarian = system: OVCAR-4 ovarian
OVCAR-8 ovarian = system: OVCAR-8 ovarian
BT-549 breast = system: BT-549 breast
SF-295 CNS = system: SF-295 CNS
KM12 colon = system: KM12 colon
SNB-19 CNS = system: SNB-19 CNS
DU-145 prostate = system: DU-145 prostate
NCI-H226 lung = system: NCI-H226 lung
HT29 colon = system: HT29 colon
M14 melanoma = system: M14 melanoma
MALME-3M melanoma = system: MALME-3M melanoma
COLO 205 colon = system: COLO 205 colon
EKVX NSCLC = system: EKVX NSCLC
HS 578T breast = system: HS 578T breast
SNB-75 CNS = system: SNB-75 CNS
SF-539 CNS = system: SF-539 CNS
A549 NSCLC = system: A549 NSCLC
786-0 renal = system: 786-0 renal
HOP-62 NSCLC = system: HOP-62 NSCLC
UO-31 renal = system: UO-31 renal

Work on `Cc1ccc(NC(=O)c2nc(S(C)=O)oc2-c2ccc(F)cc2)cc1Nc1nccc(-c2cccnc2)n1` (configuration not stated) yielded a GI50 (SK-MEL-28 melanoma) of 1.95 µM, a TGI (SK-MEL-28 melanoma) of 3.97 µM and a GI50 (HCT-116 colon) of 1.88 µM. It also gave a TGI (HCT-116 colon) of 3.57 µM, a GI50 (SW-620 colon) of 2.1 µM and a TGI (SW-620 colon) of 4.01 µM. For the same compound, the GI50 (SN12C renal) was 1.81 µM, the TGI (SN12C renal) was 3.73 µM and the GI50 (CCRF-CEM leukemia) was 1.58 µM. For the same compound, the TGI (CCRF-CEM leukemia) was 6.83 µM, the GI50 (RXF 393 renal) was 1.86 µM and the TGI (RXF 393 renal) was 3.46 µM. The GI50 (MOLT-4 leukemia) was 2.17 µM, the TGI (MOLT-4 leukemia) was 6.82 µM and the GI50 (RPMI-8226 leukemia) was 2.43 µM. The TGI (RPMI-8226 leukemia) was 6.5 µM, the GI50 (PC-3 prostate) was 2.25 µM and the TGI (PC-3 prostate) was 4.85 µM. It also gave a GI50 (NCI/ADR-RES ovarian) of 3.07 µM, a TGI (NCI/ADR-RES ovarian) of 11.9 µM and a GI50 (UACC-62 melanoma) of 1.8 µM. It also gave a TGI (UACC-62 melanoma) of 3.38 µM, a GI50 (NCI-H460 lung) of 2.09 µM and a TGI (NCI-H460 lung) of 4.06 µM. The GI50 (SK-MEL-5 melanoma) was 1.84 µM, the TGI (SK-MEL-5 melanoma) was 3.59 µM and the GI50 (MDA-MB-231 breast) was 1.94 µM. For the same compound, the TGI (MDA-MB-231 breast) was 4.38 µM, the GI50 (HOP-92 NSCLC) was 2.13 µM and the TGI (HOP-92 NSCLC) was 4.69 µM. It also gave a GI50 (U251 CNS) of 1.98 µM, a TGI (U251 CNS) of 3.57 µM and a GI50 (UACC-257 melanoma) of 2.72 µM. It also gave a TGI (UACC-257 melanoma) of 7.74 µM, a GI50 (SR leukemia) of 0.726 µM and a TGI (SR leukemia) of 3.79 µM. It also gave a GI50 (SK-OV-3 ovarian) of 10.5 µM, a TGI (SK-OV-3 ovarian) of 25.7 µM and a GI50 (IGROV1 ovarian) of 1.89 µM. The TGI (IGROV1 ovarian) was 3.85 µM, the GI50 (MDA-MB-435) was 2.13 µM and the TGI (MDA-MB-435) was 4.77 µM. For the same compound, the GI50 (SK-MEL-2 melanoma) was 1.78 µM, the TGI (SK-MEL-2 melanoma) was 4.03 µM and the GI50 (MCF7 breast) was 1.87 µM. It also gave a TGI (MCF7 breast) of 3.86 µM, a GI50 (LOX IMVI melanoma) of 1.22 µM and a TGI (LOX IMVI melanoma) of 2.65 µM. The GI50 (SF-268 CNS) was 2.15 µM, the TGI (SF-268 CNS) was 4.61 µM and the GI50 (OVCAR-5 ovarian) was 4.46 µM. It also gave a TGI (OVCAR-5 ovarian) of 30.1 µM, a GI50 (T-47D breast) of 1.73 µM and a TGI (T-47D breast) of 3.68 µM. For the same compound, the GI50 (TK-10 renal) was 2.82 µM, the TGI (TK-10 renal) was 6.25 µM and the GI50 (A498 renal) was 7.19 µM. The TGI (A498 renal) was 20.2 µM, the GI50 (NCI-H522 lung) was 1.05 µM and the TGI (NCI-H522 lung) was 3.04 µM. For the same compound, the GI50 (K-562 leukemia) was 0.454 µM, the TGI (K-562 leukemia) was 3.3 µM and the GI50 (HL-60(TB) leukemia) was 3.06 µM. For the same compound, the TGI (HL-60(TB) leukemia) was 10.9 µM, the GI50 (OVCAR-3 ovarian) was 1.87 µM and the TGI (OVCAR-3 ovarian) was 3.39 µM. It also gave a GI50 (ACHN renal) of 1.69 µM, a TGI (ACHN renal) of 3.1 µM and a GI50 (HCC-2998 colon) of 3.91 µM. It also gave a TGI (HCC-2998 colon) of 13 µM, a GI50 (NCI-H23 lung) of 1.83 µM and a TGI (NCI-H23 lung) of 4.49 µM. It also gave a GI50 (OVCAR-4 ovarian) of 3.16 µM, a TGI (OVCAR-4 ovarian) of 9 µM and a GI50 (OVCAR-8 ovarian) of 2.23 µM. The TGI (OVCAR-8 ovarian) was 4.64 µM, the GI50 (BT-549 breast) was 1.74 µM and the TGI (BT-549 breast) was 4.17 µM. For the same compound, the GI50 (SF-295 CNS) was 15.1 µM, the TGI (SF-295 CNS) was 29.2 µM and the GI50 (KM12 colon) was 2.58 µM. For the same compound, the TGI (KM12 colon) was 7.14 µM, the GI50 (SNB-19 CNS) was 2.15 µM and the TGI (SNB-19 CNS) was 3.91 µM. It also gave a GI50 (DU-145 prostate) of 1.91 µM, a TGI (DU-145 prostate) of 3.75 µM and a GI50 (NCI-H226 lung) of 3.84 µM. For the same compound, the TGI (NCI-H226 lung) was 25.8 µM, the GI50 (HT29 colon) was 1.82 µM and the TGI (HT29 colon) was 3.53 µM. It also gave a GI50 (M14 melanoma) of 1.99 µM, a TGI (M14 melanoma) of 4.34 µM and a GI50 (MALME-3M melanoma) of 1.34 µM. For the same compound, the TGI (MALME-3M melanoma) was 2.89 µM, the GI50 (COLO 205 colon) was 2.03 µM and the TGI (COLO 205 colon) was 4.41 µM. It also gave a GI50 (EKVX NSCLC) of 2.62 µM, a TGI (EKVX NSCLC) of 6.65 µM and a GI50 (HS 578T breast) of 2.96 µM. It also gave a TGI (HS 578T breast) of 8.94 µM, a GI50 (SNB-75 CNS) of 2.31 µM and a TGI (SNB-75 CNS) of 5.43 µM. The GI50 (SF-539 CNS) was 1.77 µM, the TGI (SF-539 CNS) was 3.71 µM and the GI50 (A549 NSCLC) was 5.15 µM. The TGI (A549 NSCLC) was 17.3 µM, the GI50 (786-0 renal) was 2 µM and the TGI (786-0 renal) was 3.55 µM. The GI50 (HOP-62 NSCLC) was 2.95 µM, the TGI (HOP-62 NSCLC) was 8.04 µM and the GI50 (UO-31 renal) was 1.73 µM. The TGI (UO-31 renal) was 3.14 µM.
